Measurements from patent US8748491B2, “Dietary and pharmaceutical compositions containing tricyclic diterpenes and their derivatives and their uses” (priority 2006, dated 2014).
Marks after values point to notes of the source that are not given here.

What was measured:
mouse [1] = test: Light dark box test; format: in vivo; details: mouse, 32 mg/kg p.o. −1 h
Text: The method, which detects anxiolytic activity, follows that described by Crawley, 1981 Pharmacol. Biochem. Behav., 15:695-699. Anxiolytics increase the time spent in the light compartment.
Animals were placed into the light compartment of a 2-compartment box with one half light and open (25×27×27 cm) and the other half dark and closed (20×27×27 cm). The time spent in each compartment as well as the number of times the animal crosses from one side to the other is scored during a 3-minute test. 15 mice were studied per group. The test was performed blind.
Carnosic acid was evaluated at 3 doses (100, 200, 400 mg/kg BW), administered by oral gavage (p.o.) 24, 5 and 1 hour before the test, and compared with a vehicle control group (corn oil). Carnosic acid was dissolved in corn oil (“vehicle”). Clobazam (32 mg/kg p.o.), administered 1 hour before the test, was used as reference substance. Mice in this group received additional administrations of vehicle at 24 and 5 hours before the test in order to maintain experimental blinding.

mouse [2] = test: Marble burying test; format: in vivo; details: for NUMBER OF MARBLES COVERED BY SAWDUST % change from control / NUMBER OF MARBLES COVERED BY SAWDUST mean ± s.e.m.: mouse
Method: The method applied here follows that described by Broekkamp et al., supra. Mice (n=15 per treatment group) were individually placed in transparent plastic cages (33×21×18 cm) with 5 cm of sawdust on the floor and 25 marbles (diameter 1 cm) grouped in the centre of the cage. A second, up-turned, cage served as a lid. The number of marbles covered by sawdust (by at least two-thirds) was counted at the end of the 30-minute test period. Tests were performed by investigators blind to the drug treatment protocol.
Prior to testing, all test cages and marbles were “impregnated” by leaving 10 naive mice in each cage for 15 minutes. […]
Data were analysed by comparing treated groups with vehicle control using unpaired Student's t-tests.

[3] = target: T1, human serotonin re-uptake transporter (hSERT) (Homo sapiens, UniProt P31645); test: Inhibition of tritiated serotonin uptake into transfected HEK-293 cells; format: cell-based; details: HEK-293 cells expressing hSERT; 20 nM [3H] serotonin, 40 min, 37° C.; mean ± s.e.m.
T1 construct: host or cells: HEK-293
Text: HEK-293 cells stably expressing the human serotonin re-uptake transporter (hSERT) were obtained from R. Blakely, Vanderbilt University, USA. The cells were routinely grown in Dulbecco's Modified Eagle's Medium (Bioconcept) containing 10% fetal calf serum, penicillin, streptomycin, L-glutamine and the antibiotic G418 and passaged by trypsinisation. On the day of assay, cells from 80% confluent flasks were harvested by gentle washing with warm phosphate buffered saline (PBS). […] Serotonin uptake into the cells was determined by addition of radio-labelled [^3H] serotonin (GE Healthcare) at a concentration of 20 nM, and incubation for 40 minutes at 37° C. with gentle shaking. At the end of this time unincorporated label was removed by filtration though Unifilter 96 GF/B plates (Perkin Elmer) using a Tomtec Mach III M cell harvester. The incorporated serotonin retained on the plates was quantified by liquid scintillation counting using Microscint-40/Topcount (Perkin Elmer).

[4] = target: T2, Monoamine oxidase B (MAO-B) (Homo sapiens, UniProt P27338); test: Monoamine oxidase B inhibition (benzylamine substrate, H2O2/vanillic acid/HRP readout); format: biochemical; details: benzylamine 0.5 mM; mean ± s.e.m.; read-out: IC50 [μM] for Inhibition of MAO-B
T2 sequence (P27338 1-520): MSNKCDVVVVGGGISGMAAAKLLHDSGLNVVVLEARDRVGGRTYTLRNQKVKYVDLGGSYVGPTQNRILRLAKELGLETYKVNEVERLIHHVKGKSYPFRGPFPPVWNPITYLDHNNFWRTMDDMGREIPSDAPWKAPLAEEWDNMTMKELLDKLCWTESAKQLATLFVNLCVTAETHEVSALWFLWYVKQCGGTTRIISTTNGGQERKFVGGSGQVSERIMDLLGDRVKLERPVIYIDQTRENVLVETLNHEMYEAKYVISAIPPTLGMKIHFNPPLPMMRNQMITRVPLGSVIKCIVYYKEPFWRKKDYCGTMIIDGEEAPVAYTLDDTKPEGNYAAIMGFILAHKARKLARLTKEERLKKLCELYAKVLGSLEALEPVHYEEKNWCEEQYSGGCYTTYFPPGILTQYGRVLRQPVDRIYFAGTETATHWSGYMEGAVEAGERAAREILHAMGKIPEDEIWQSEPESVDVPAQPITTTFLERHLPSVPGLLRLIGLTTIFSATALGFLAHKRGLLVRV
Method: (§1) The organic amines p-tyramine or benzylamine were used as substrates for the Monoamine oxidase A (MAO-A) and B (MAO-B) enzymes respectively. The H2O2 produced by this reaction was quantified by reaction with vanillic acid, catalysed by horse radish peroxidase (HRP).
(§2) The reactions were carried out in polystyrene microtitre plates. The MAO enzymes (final concentration 2 U/ml) were mixed with either p-tyramine (Sigma, final concentration 0.5 mM) or benzylamine (Sigma, final concentration 0.5 mM) as appropriate and the chromogenic solution (containing vanillic acid (Fluka), 4-aminoantipyrine (Fluka) and horse radish peroxidase (Sigma), final concentrations 0.25 mM, 0.125 mM and 1 U/ml respectively) in 0.2 M potassium phosphate buffer, pH 7.6. The reactions were followed in a microtitre plate absorbance reader e.g. Spectramax M5 (Molecular Devices Corporation). Absorbance readings at 495 nm were taken every 15 seconds for 40 minutes and the initial reaction velocities calculated by linear regression using SOFTmaxPro (Molecular Devices Corporation).
(§3) The effect of tricyclic diterpenes and their derivatives according to formula I on the monoamine oxidase enzymes was determined by their inclusion in the assay at a range of concentrations between 0.03 and 100 μM for 10 minutes prior to and during the incubation with substrate. To determine the effect of the compounds on the HRP catalyzed portion of the reaction, the MAO enzyme was replaced by H2O2 (Molecular Probes, final concentration 0.2 mM). The reactions containing MAO-A and MAO-B were both inhibited by tricyclic diterpenes and their derivatives according to formula I in a dose-dependent manner, whilst the control reaction, was unaffected. The measured IC50 values for inhibition of monoamine oxidase activity by carnosic acid, carnosic acid-12-methyl ether and 20-deoxo-carnosol are shown in Table 3.

[5] = target: T3, Monoamine oxidase A (MAO-A) (Homo sapiens, UniProt P21397); test: Monoamine oxidase A inhibition (p-tyramine substrate, H2O2/vanillic acid/HRP readout); format: biochemical; details: p-tyramine 0.5 mM; mean ± s.e.m.; read-out: IC50 [μM] for Inhibition of MAO-A
T3 sequence (P21397 1-527): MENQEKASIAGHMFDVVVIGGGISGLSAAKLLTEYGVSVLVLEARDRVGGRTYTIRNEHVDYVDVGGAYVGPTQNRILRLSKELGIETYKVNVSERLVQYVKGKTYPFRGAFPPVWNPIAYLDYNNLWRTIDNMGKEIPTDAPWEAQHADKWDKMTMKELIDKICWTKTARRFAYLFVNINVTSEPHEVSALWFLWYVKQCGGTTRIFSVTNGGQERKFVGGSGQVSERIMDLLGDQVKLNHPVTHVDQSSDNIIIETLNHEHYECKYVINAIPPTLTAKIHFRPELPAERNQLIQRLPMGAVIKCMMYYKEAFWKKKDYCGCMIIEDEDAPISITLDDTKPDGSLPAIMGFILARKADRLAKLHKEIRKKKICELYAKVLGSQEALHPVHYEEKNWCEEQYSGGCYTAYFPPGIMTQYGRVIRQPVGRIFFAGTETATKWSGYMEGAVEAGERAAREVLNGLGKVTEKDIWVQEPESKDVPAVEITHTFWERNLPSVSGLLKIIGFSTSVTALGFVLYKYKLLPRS
Method: as §1, §2, §3

mouse [6] = test: Porsolt's forced swim test (FST); format: in vivo
Method: Mice were individually placed in cylinders (24.5 cm height, 19.5 cm internal diameter) containing 13.5 cm depth of water (22±0.5° C.) for a period of 6 minutes, behavioural parameters of interest being analysed during the final 4 minutes of the test, since the first 2 minutes include vigorous activity. Six cylinders were placed in a Perspex box, thus enabling six mice to be tested simultaneously.
Automatic monitoring of swim tests was enabled through the use of VideoMot2 software (TSE Technical and Scientific Equipment GmbH, Bad Homburg, Germany). All to experiments were observed via a black and white CCD camera. The rest:locomotion and stop:start thresholds, as determined by setting parameters in the software programme, determine the number of pixels which must change for a movement to be registered, enabling the software to determine whether a mouse is swimming or resting. The parameters which are automatically recorded include: rest time and locomotion time (ms), % rest and % locomotion, distance travelled (cm), speed of travel (cm/s) and number of stops.
Data were analysed by comparing treated groups with the untreated control group using Fisher's PLSD (StatView, SAS Institute Inc., Cary, N.C., USA)

[7] = Table 6, 100 mg/kg i.p. −30 min
[8] = Table 6, 200 mg/kg i.p. −30 min

T1 sequence (P31645 whole entry): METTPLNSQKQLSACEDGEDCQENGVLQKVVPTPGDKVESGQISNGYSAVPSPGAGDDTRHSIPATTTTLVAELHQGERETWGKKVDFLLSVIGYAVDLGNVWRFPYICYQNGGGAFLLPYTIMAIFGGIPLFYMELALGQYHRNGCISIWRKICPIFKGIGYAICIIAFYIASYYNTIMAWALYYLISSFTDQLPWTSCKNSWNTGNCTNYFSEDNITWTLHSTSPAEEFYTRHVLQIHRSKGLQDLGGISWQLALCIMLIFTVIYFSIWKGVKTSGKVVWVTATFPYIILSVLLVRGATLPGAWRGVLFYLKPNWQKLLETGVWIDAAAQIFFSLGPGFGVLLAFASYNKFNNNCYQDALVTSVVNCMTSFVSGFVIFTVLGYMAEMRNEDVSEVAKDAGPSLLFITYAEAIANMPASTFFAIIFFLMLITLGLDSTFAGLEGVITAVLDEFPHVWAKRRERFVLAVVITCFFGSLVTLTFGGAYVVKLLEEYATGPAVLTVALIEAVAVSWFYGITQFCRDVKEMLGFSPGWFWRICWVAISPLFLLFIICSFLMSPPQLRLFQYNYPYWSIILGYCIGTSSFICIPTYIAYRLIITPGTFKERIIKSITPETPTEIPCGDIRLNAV

CN1C(=O)CC(=O)N(c2ccccc2)c2cc(Cl)ccc21 [Clobazam, clobazam, reference compound]
NUMBER OF CROSSINGS % change from control (mouse [1]): +56%
TIME SPENT IN THE LIGHT COMPARTMENT % change from control (mouse [1]): +43%

CNCCC(Oc1ccc(C(F)(F)F)cc1)c1ccccc1 (stereo not drawn) [Fluoxetine, fluoxetine, reference compound]
NUMBER OF MARBLES COVERED BY SAWDUST % change from control (mouse [2]; Table 5, 32 mg/kg i.p. −30 min): −100%
NUMBER OF MARBLES COVERED BY SAWDUST mean ± s.e.m. (mouse [2]; Table 5, 32 mg/kg i.p. −30 min): 0.0 ± 0.0
NUMBER OF MARBLES COVERED BY SAWDUST % change from control (mouse [2]; Table 6, 32 mg/kg i.p. −30 min): −100%
NUMBER OF MARBLES COVERED BY SAWDUST mean ± s.e.m. (mouse [2]; Table 6, 32 mg/kg i.p. −30 min): 0.0***

CC(C)c1ccc2c(c1)C(=O)C[C@H]1[C@](C)(C(=O)O)CCC[C@]21C [7-Oxocallitrisic Acid, 7-oxocallitrisic acid]
IC50 [3]: 32.9 ± 8.6 µM

CC(C)c1c(O)ccc2c1CC[C@H]1C(C)(C)CCC[C@]21C [Totarol, totarol]
IC50 [3]: 7.5 ± 2.6 µM

COc1c(C(C)C)cc2c(c1O)C1(C(=O)O)CCCC(C)(C)C1CC2 (stereo not drawn) [Carnosic acid-12-methylether, carnosic acid 12-methyl ether]
IC50 [3]: 22 ± 4.9 µM
IC50 [4]: 83.1 ± 6.8 µM
IC50 [5]: 40.6 ± 0.25 µM

CN(C)CCCN1c2ccccc2CCc2ccccc21 [imipramine, reference compound]
Duration of immobility (% change from control) (mouse [6]; 32 mg/kg i.p., −30 min): −61%
Duration of immobility (% change from control) (mouse [6]; 32 mg/kg p.o., −24, −5, −1 h): −56%

COc1ccc(C(CN(C)C)C2(O)CCCCC2)cc1 (stereo not drawn) [VENLAFAXINE, venlafaxine, reference compound]
NUMBER OF MARBLES COVERED BY SAWDUST % change from control (mouse [2]; Table 6, 16 mg/kg i.p. −30 min): −60%
NUMBER OF MARBLES COVERED BY SAWDUST mean ± s.e.m. (mouse [2]; Table 6, 16 mg/kg i.p. −30 min): 8.7 ± 2.2

COC(=O)C1(C)CCCC2(C)c3ccc(O)c(C(C)C)c3CCC12 (stereo not drawn) [Totarol-19-carboxylic acid methyl ester, totarol-19-carboxylic acid methyl ester]
IC50 [3]: 7.2 µM

CC(C)c1cc2c(c(O)c1O)[C@@]13CCCC(C)(C)[C@@H]1C[C@@H]2OC3 [20-Deoxo-carnosol, 20-deoxo-carnosol]
IC50 [3]: 4.2 ± 0.2 µM
NUMBER OF MARBLES COVERED BY SAWDUST % change from control (mouse [2]; Table 6, 30 mg/kg i.p. −30 min): −24%
NUMBER OF MARBLES COVERED BY SAWDUST mean ± s.e.m. (mouse [2]; Table 6, 30 mg/kg i.p. −30 min): 16.7 ± 2.2
NUMBER OF MARBLES COVERED BY SAWDUST % change from control (mouse [2]; [7]): −56%
NUMBER OF MARBLES COVERED BY SAWDUST mean ± s.e.m. (mouse [2]; [7]): 9.7 ± 2.3
NUMBER OF MARBLES COVERED BY SAWDUST % change from control (mouse [2]; [8]): −60%
NUMBER OF MARBLES COVERED BY SAWDUST mean ± s.e.m. (mouse [2]; [8]): 8.8 ± 2.4
marble burying behaviour (in words) (mouse [2]; mouse, 30, 100 and 200 mg/kg i.p.): dose-dependently and significantly reduced marble burying behaviour
IC50 [4]: 27 ± 7.3 µM
IC50 [5]: 4.3 ± 1.1 µM

16-hydroxytotarol
IC50 [3]: 7.4 µM
